According to PubChem BioAssay AID1919008 (Molecular Pharmacology Branch, DTP, NCI, 2023):

System: DMS-114 complex spheroids with HUVEC/MSC, growth % test/control
Test: Anticancer human tumor DMS-114 cell line growth inhibition [AhR];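 note: spheroids exposed to agents for 7 days before readout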;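 for viability, T/C: 100% = DMSO vehicle control wells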
Conditions: for IC50: curve of first compound; for viability, T/C: stronger effect = lower value
Excerpt: Multicellular complex tumor spheroid response to aryl hydrocarbon receptor antagonists in combination with a variety of drugs and investigational agents in selected tumor cell lines
The current study was undertaken to assess response to aryl hydrocarbon receptor antagonists in combination with standard-of-care drugs and investigational agents in solid tumor complex spheroid models. Complex spheroids include a stromal component modeled by human endothelial cells (HUVEC) and fibroblasts modeled by human mesenchymal stem cells (MSCs). The concentration ranges selected for each drug and investigational agent were based upon clinically achievable concentrations if the clinical Cmax of the agent was known.
Compounds. The drugs and investigational agents: BAY 2416964 (NSC825713), GNF351 (NSC835774), CH-223191 (NSC835775), CPI-455 (NSC825282), aza-TdCyd (NSC777586), decitabine (NSC127716), belinostat (NSC758774), entinostat (NSC756642), pevonedistat (NSC761192), tazemetostat (NSC777109), talazoparib (NSC765396), olaparib (NSC753686), selinexor (NSC780203), nedisertib (M3814, NSC802822), bortezomib (NSC756655), venetoclax (NSC766270), doxorubicin (NSC123127), elimusertib (BAY189344, NSC800525), ceralasertib (AZD6738, NSC777638), TAK-243 (NSC785004), alisertib (NSC759677), etoposide (NSC141540), topotecan (NSC609699), eribulin (NSC707389), gemcitabine (NSC613327), carboplatin (NSC241240), cisplatin (NSC119875), and SN-38 (NSC673596) were obtained from the National Cancer Institute (NCI) Developmental Therapeutics Program Chemical Repository (32). The FDA-approved anticancer drug set is available from the Developmental Therapeutics Program at https://dtp.cancer.gov/organization/dscb/obtaining/available plates.htm. […] The stock solutions were prepared in dimethyl sulfoxide (DMSO, Sigma-Aldrich, St. Louis, MO, cat. D2650), except for the platinum compounds which were prepared in saline (Quality Biological, Gaithersburg, MD, cat. 114-055-101), at 800-fold the tested concentration and stored at -70 degrees C prior to their use. All drugs and investigational agents were tested over a range starting from a high concentration at or near the clinical Cmax and decreasing in half-log increments. If the clinical Cmax for an agent had not been determined, the highest concentration tested was 10 microM (Table 1).
Cell Culture. All cells were maintained in an incubator at 37 degrees C and 5% CO2 with 95% humidity. The PDC lines were cultured according to standard operating procedures established by the NCI PDMR (https://pdmr.cancer.gov). Briefly, all PDCs were thawed and cultured in Matrigel-coated flasks prepared with a working solution of 1X Ham's F-12 nutrient mix, without supplementation (Invitrogen, Waltham, MA, cat. 11765054), 100 U/mL penicillin-streptomycin (Invitrogen, cat. 15140122), and 2.5% Matrigel (Corning Inc., Corning, NY, cat. 354248) for the first three passages. All PDCs were cultured in complete DMEM/F-12 media containing advanced DMEM/F-12 (Invitrogen, cat. 12634028), 4.9% defined fetal bovine serum, heat inactivated (HyClone Laboratories Inc., Logan, UT, cat. SH30070.03HI), 389 ng/mL hydrocortisone (Sigma-Aldrich, cat. H4001), 9.7 ng/mL human EGF recombinant protein (Invitrogen, cat. PHG0313), 23.4 microg/mL adenine (Sigma-Aldrich, cat. A2786), 97.3 U/mL penicillin-streptomycin (Invitrogen, cat. 15140122), 1.9 mM L-glutamine (Invitrogen, cat. 25030081), and 9.7 microM Y-27632 dihydrochloride (Tocris Bioscience, Bristol, United Kingdom, cat. 1254). The PDCs were cultured in complete DMEM/F12 media without 10 microM Y-27632 dihydrochloride for at least two passages prior to the screen. The established cell lines NCI-H1341 and […] were cultured in DMEM/F-12, HEPES (Invitrogen, cat. 11330032), 5% defined fetal bovine serum (HyClone Laboratories Inc., cat. SH30070.03), ITS premix universal culture supplement [insulin (5 microg/mL), transferrin (5 microg/mL), and selenious acid (5 ng/mL)] […]

[1] = second compound 0.1 µM, first compound 0.0316 µM
[2] = second compound 0.1 µM, first compound 0.1 µM
[3] = second compound 0.1 µM, first compound 0.316 µM
[4] = second compound 0.1 µM, first compound 1 µM
[5] = second compound 0.1 µM, first compound 3.16 µM
[6] = second compound 0.1 µM, first compound 10 µM
[7] = second compound 0.316 µM, first compound 0.0316 µM
[8] = second compound 0.316 µM, first compound 0.1 µM
[9] = second compound 0.316 µM, first compound 0.316 µM
[10] = second compound 0.316 µM, first compound 1 µM
[11] = second compound 0.316 µM, first compound 3.16 µM
[12] = second compound 0.316 µM, first compound 10 µM
[13] = second compound 1 µM, first compound 0.0316 µM
[14] = second compound 1 µM, first compound 0.1 µM
[15] = second compound 1 µM, first compound 0.316 µM
[16] = second compound 1 µM, first compound 1 µM
[17] = second compound 1 µM, first compound 3.16 µM
[18] = second compound 1 µM, first compound 10 µM
[19] = second compound 3.16 µM, first compound 0.0316 µM
[20] = second compound 3.16 µM, first compound 0.1 µM
[21] = second compound 3.16 µM, first compound 0.316 µM
[22] = second compound 3.16 µM, first compound 1 µM
[23] = second compound 3.16 µM, first compound 3.16 µM
[24] = second compound 3.16 µM, first compound 10 µM
[25] = second compound 10 µM, first compound 0.0316 µM
[26] = second compound 10 µM, first compound 0.1 µM
[27] = second compound 10 µM, first compound 0.316 µM
[28] = second compound 10 µM, first compound 1 µM
[29] = second compound 10 µM, first compound 3.16 µM
[30] = second compound 10 µM, first compound 10 µM

## CC(C)CC(NC(=O)C(Cc1ccccc1)NC(=O)c1cnccn1)B(O)O (stereo not given) + CC(CO)NC(=O)c1cc(-c2ccc(Cl)cc2)nn(-c2cnn(C)c2)c1=O
Second compound 0.1 µM
  IC50: 0.00361 µM
Second compound 0.316 µM
  IC50: 0.00404 µM
Second compound 1 µM
  IC50: 0.00333 µM
Second compound 3.16 µM
  IC50: 0.00329 µM
Second compound 10 µM
  IC50: 0.00434 µM
Second compound 0.1 µM, first compound 0.000949 µM
  viability, T/C: 100%
Second compound 0.1 µM, first compound 0.003 µM
  viability, T/C: 59.4%
Second compound 0.1 µM, first compound 0.00949 µM
  viability, T/C: 0.72%
Second compound 0.1 µM, first compound 0.03 µM
  viability, T/C: 0.35%
Second compound 0.1 µM, first compound 0.0949 µM
  viability, T/C: 0.11%
Second compound 0.1 µM, first compound 0.3 µM
  viability, T/C: 0.29%
Second compound 0.316 µM, first compound 0.000949 µM
  viability, T/C: 95.5%
Second compound 0.316 µM, first compound 0.003 µM
  viability, T/C: 66.8%
Second compound 0.316 µM, first compound 0.00949 µM
  viability, T/C: 1.94%
Second compound 0.316 µM, first compound 0.03 µM
  viability, T/C: 0.05%
Second compound 0.316 µM, first compound 0.0949 µM
  viability, T/C: 0.3%
Second compound 0.316 µM, first compound 0.3 µM
  viability, T/C: 0.42%
Second compound 1 µM, first compound 0.000949 µM
  viability, T/C: 113%
Second compound 1 µM, first compound 0.003 µM
  viability, T/C: 54.8%
Second compound 1 µM, first compound 0.00949 µM
  viability, T/C: 1.26%
Second compound 1 µM, first compound 0.03 µM
  viability, T/C: 0.32%
Second compound 1 µM, first compound 0.0949 µM
  viability, T/C: 0.11%
Second compound 1 µM, first compound 0.3 µM
  viability, T/C: 0.25%
Second compound 3.16 µM, first compound 0.000949 µM
  viability, T/C: 85.7%
Second compound 3.16 µM, first compound 0.003 µM
  viability, T/C: 54.4%
Second compound 3.16 µM, first compound 0.00949 µM
  viability, T/C: 0.8%
Second compound 3.16 µM, first compound 0.03 µM
  viability, T/C: 0.07%
Second compound 3.16 µM, first compound 0.0949 µM
  viability, T/C: 0.76%
Second compound 3.16 µM, first compound 0.3 µM
  viability, T/C: 0.17%
Second compound 10 µM, first compound 0.000949 µM
  viability, T/C: 99%
Second compound 10 µM, first compound 0.003 µM
  viability, T/C: 72.8%
Second compound 10 µM, first compound 0.00949 µM
  viability, T/C: 1.52%
Second compound 10 µM, first compound 0.03 µM
  viability, T/C: 0.2%
Second compound 10 µM, first compound 0.0949 µM
  viability, T/C: 0.15%
Second compound 10 µM, first compound 0.3 µM
  viability, T/C: 0.26%

## Nc1ccccc1NC(=O)c1ccc(CNC(=O)OCc2cccnc2)cc1 + CC(CO)NC(=O)c1cc(-c2ccc(Cl)cc2)nn(-c2cnn(C)c2)c1=O
Second compound 0.1 µM
  IC50: 0.749 µM
Second compound 0.316 µM
  IC50: 0.782 µM
Second compound 1 µM
  IC50: 0.726 µM
Second compound 3.16 µM
  IC50: 0.65 µM
Second compound 10 µM
  IC50: 0.813 µM
[1]
  viability, T/C: 87.3%
[2]
  viability, T/C: 85.8%
[3]
  viability, T/C: 68.2%
[4]
  viability, T/C: 43.6%
[5]
  viability, T/C: 23.1%
[6]
  viability, T/C: 13.4%
[7]
  viability, T/C: 87%
[8]
  viability, T/C: 89.7%
[9]
  viability, T/C: 76.4%
[10]
  viability, T/C: 42.3%
[11]
  viability, T/C: 20.6%
[12]
  viability, T/C: 13.5%
[13]
  viability, T/C: 91.2%
[14]
  viability, T/C: 87.6%
[15]
  viability, T/C: 73.4%
[16]
  viability, T/C: 39.8%
[17]
  viability, T/C: 24.6%
[18]
  viability, T/C: 14.8%
[19]
  viability, T/C: 92.8%
[20]
  viability, T/C: 75.4%
[21]
  viability, T/C: 68.5%
[22]
  viability, T/C: 40.1%
[23]
  viability, T/C: 23.2%
[24]
  viability, T/C: 14.8%
[25]
  viability, T/C: 90%
[26]
  viability, T/C: 87.7%
[27]
  viability, T/C: 69.2%
[28]
  viability, T/C: 45.8%
[29]
  viability, T/C: 24.9%
[30]
  viability, T/C: 14.4%

## O=C(c1cc(Cc2n[nH]c(=O)c3ccccc23)ccc1F)N1CCN(C(=O)C2CC2)CC1 + CC(CO)NC(=O)c1cc(-c2ccc(Cl)cc2)nn(-c2cnn(C)c2)c1=O
Second compound 0.1 µM
  IC50: > 10 µM
Second compound 0.316 µM
  IC50: > 10 µM
Second compound 1 µM
  IC50: > 10 µM
Second compound 3.16 µM
  IC50: > 10 µM
Second compound 10 µM
  IC50: > 10 µM
[1]
  viability, T/C: 119%
[2]
  viability, T/C: 95.6%
[3]
  viability, T/C: 89.2%
[4]
  viability, T/C: 106%
[5]
  viability, T/C: 94.3%
[6]
  viability, T/C: 63.5%
[7]
  viability, T/C: 96.7%
[8]
  viability, T/C: 96.1%
[9]
  viability, T/C: 95.5%
[10]
  viability, T/C: 94.5%
[11]
  viability, T/C: 90.3%
[12]
  viability, T/C: 68.1%
[13]
  viability, T/C: 108%
[14]
  viability, T/C: 88.9%
[15]
  viability, T/C: 118%
[16]
  viability, T/C: 107%
[17]
  viability, T/C: 102%
[18]
  viability, T/C: 61.7%
[19]
  viability, T/C: 99.4%
[20]
  viability, T/C: 105%
[21]
  viability, T/C: 95.7%
[22]
  viability, T/C: 93.3%
[23]
  viability, T/C: 85.6%
[24]
  viability, T/C: 67.3%
[25]
  viability, T/C: 94%
[26]
  viability, T/C: 95.9%
[27]
  viability, T/C: 87.8%
[28]
  viability, T/C: 86%
[29]
  viability, T/C: 86.2%
[30]
  viability, T/C: 53.1%
